Experimental data taken from article PMC6321168, “Comparative Study on Excretive Characterization of Main Components in Herb Pair Notoginseng-Safflower and Single Herbs by LC–MS/MS” (Pharmaceutics, 2018).

Experiment: Urinary excretion study in rats after oral NS, SF or CNS (LC–MS/MS)
Type: in vivo
Settings: for concentration at 2 h / concentration at 4 h / concentration at 8 h / concentration at 12 h / concentration at 24 h / concentration at 36 h / concentration at 48 h / concentration at 72 h / concentration at 96 h / concentration at 120 h / concentration at 6 h: male, Sprague Dawley, rat, urine, oral; for Accumulative excretion amount / Accumulative excretion percentage / Excretion amount: rat urine
Description: The animal room was set at constant temperature of 20 ± 2 °C with humidity of 50 ± 20% and 12/12 h light/dark cycle.
Eighteen male rats were fasted for 12 h before starting the experiment. The rats were divided into three groups at random (n = 6) and received NS (60 mg/kg), SF (50 mg/kg), and NS (60 mg/kg) + SF (50 mg/kg), respectively, by oral gavage. The rats were placed in separate metabolic cages. The urine samples were collected at 0–2, 2–4, 4–6, 6–8, 8–12, 12–24, 24–36, 36–48, 48–72, 72–96, and 96–120 h. The feces samples were collected at 0–4, 4–8, 8–12, 12–24, 24–36, 36–48, 48–72, 72–96, and 96–120 h. The urine volume was recorded and the dry feces were measured for each collection period. Samples were stored at −80 °C until analysis.
An aliquot of 200 μL urine sample was mixed with 10 μL of IS and evaporated to dryness with a ZLS-2 vacuum centrifugal concentrator (Herexi Co., Ltd., Changsha, Hunan, China). The residue was reconstituted in 100 μL of 50% methanol vortexed for 2 min and centrifuged at 12,000 rpm for 15 min. Finally, a 1 μL aliquot was injected for LC–MS analysis.
Ultra fast liquid chromatography (UFLC) analysis was performed using a Shimadzu UFLC system (DGU-20A3R Degasser; LC-20AD pump; SIL-20AXR Autosampler; CTO-20AC Column Oven) (Nakagyo-Ku, Koyoto, Japan). […] Because of the different endogenous substances in the urine and feces samples, different elution gradients were used to alleviate the matrix effects for the analytes.
The mass spectrometric detection was performed on an ABSciex 4500 Qtrap mass spectrometer (ABSciex, Foster City, CA, USA) equipped with a negative electrospray ionization (ESI) interface using multiple reaction monitoring (MRM). The MS parameters were optimized under the selected ion monitoring conditions as follows: curtain gas, 35 psi; ionspray voltage, 4500 V; turbo gas temperature, 450 °C; GS1, 45 psi; GS2, 45 psi. All data were acquired and analyzed by Analyst software (Versions 1.6.2) from ABSciex.
The accumulative excretion percentage was calculated for each analyte as follows. Excretion at time (t) = [concentration of the analyte (ng/mL) at t] × total urine (or feces) volume (mL) at t. The cumulative excretion up to time t (mg) was expressed as a percent (%) cumulative excretion by dividing by the total amount of the analyte ingested (mg): % Cumulative Excretion = 100 × (Σt excretiont) total ingested.

Structure (SMILES): CC(C)=CCC[C@](C)(O[C@@H]1O[C@H](CO)[C@@H](O)[C@H](O)[C@H]1O)[C@H]1CC[C@]2(C)[C@@H]1[C@H](O)C[C@@H]1[C@@]3(C)CC[C@H](O[C@@H]4O[C@H](CO)[C@@H](O)[C@H](O)[C@H]4O[C@@H]4O[C@H](CO)[C@@H](O)[C@H](O)[C@H]4O)C(C)(C)[C@@H]3CC[C@]12C [ginsenoside Rd]
- concentration at 2 h (60 mg/kg, oral NS 60 mg/kg, 2 h): 17 ± 39 ng/mL
- concentration at 4 h (60 mg/kg, oral NS 60 mg/kg, 4 h): 33 ± 69 ng/mL
- concentration at 8 h (60 mg/kg, oral NS 60 mg/kg, 8 h): 9 ± 12 ng/mL
- concentration at 12 h (60 mg/kg, oral NS 60 mg/kg, 12 h): 28 ± 19 ng/mL
- concentration at 24 h (60 mg/kg, oral NS 60 mg/kg, 24 h): 34 ± 63 ng/mL
- concentration at 36 h (60 mg/kg, oral NS 60 mg/kg, 36 h): 17 ± 33 ng/mL
- concentration at 48 h (60 mg/kg, oral NS 60 mg/kg, 48 h): 12 ± 19 ng/mL
- concentration at 72 h (60 mg/kg, oral NS 60 mg/kg, 72 h): 12 ± 23 ng/mL
- concentration at 96 h (60 mg/kg, oral NS 60 mg/kg, 96 h): 6 ± 10 ng/mL
- concentration at 120 h (60 mg/kg, oral NS 60 mg/kg, 120 h): 3 ± 6 ng/mL
- concentration at 2 h (oral CNS 110 mg/kg, 2 h): 22 ± 42 ng/mL
- concentration at 4 h (oral CNS 110 mg/kg, 4 h): 9 ± 15 ng/mL
- concentration at 6 h (oral CNS 110 mg/kg, 6 h): 17 ± 16 ng/mL
- concentration at 8 h (oral CNS 110 mg/kg, 8 h): 38 ± 75 ng/mL
- concentration at 12 h (oral CNS 110 mg/kg, 12 h): 53 ± 110 ng/mL
- concentration at 24 h (oral CNS 110 mg/kg, 24 h): 315 ± 787 ng/mL
- concentration at 36 h (oral CNS 110 mg/kg, 36 h): 41 ± 68 ng/mL
- concentration at 48 h (oral CNS 110 mg/kg, 48 h): 30 ± 70 ng/mL
- concentration at 72 h (oral CNS 110 mg/kg, 72 h): 16 ± 35 ng/mL
- concentration at 96 h (oral CNS 110 mg/kg, 96 h): 16 ± 36 ng/mL
- concentration at 120 h (oral CNS 110 mg/kg, 120 h): 10 ± 17 ng/mL
- concentration at 6 h (oral NS 60 mg/kg, 6 h): 10 ± 18 ng/mL
- Accumulative excretion amount (oral CNS 110 mg/kg, 2 h): 0.005 ± 0.005 µg
- Accumulative excretion percentage (oral CNS 110 mg/kg, 2 h): 0.001±0.001%
- Excretion amount (oral CNS 110 mg/kg, 2 h): 0.005 ± 0.005 µg
- Accumulative excretion amount (oral CNS 110 mg/kg, 4 h): 0.009 ± 0.008 µg
- Accumulative excretion percentage (oral CNS 110 mg/kg, 4 h): 0.001±0.001%
- Excretion amount (oral CNS 110 mg/kg, 4 h): 0.005 ± 0.007 µg
- Accumulative excretion amount (oral CNS 110 mg/kg, 6 h): 0.024 ± 0.023 µg
- Accumulative excretion percentage (oral CNS 110 mg/kg, 6 h): 0.003±0.003%
- Excretion amount (oral CNS 110 mg/kg, 6 h): 0.018 ± 0.018 µg
- Accumulative excretion amount (oral CNS 110 mg/kg, 8 h): 0.029 ± 0.024 µg
- Accumulative excretion percentage (oral CNS 110 mg/kg, 8 h): 0.004±0.003%
- Excretion amount (oral CNS 110 mg/kg, 8 h): 0.010 ± 0.009 µg
- Accumulative excretion amount (oral CNS 110 mg/kg, 12 h): 0.045 ± 0.040 µg
- Accumulative excretion percentage (oral CNS 110 mg/kg, 12 h): 0.006±0.005%
- Excretion amount (oral CNS 110 mg/kg, 12 h): 0.019 ± 0.016 µg
- Accumulative excretion amount (oral CNS 110 mg/kg, 24 h): 0.103 ± 0.083 µg
- Accumulative excretion percentage (oral CNS 110 mg/kg, 24 h): 0.014±0.011%
- Excretion amount (oral CNS 110 mg/kg, 24 h): 0.058 ± 0.066 µg
- Accumulative excretion amount (oral CNS 110 mg/kg, 36 h): 0.114 ± 0.086 µg
- Accumulative excretion percentage (oral CNS 110 mg/kg, 36 h): 0.015±0.011%
- Excretion amount (oral CNS 110 mg/kg, 36 h): 0.011 ± 0.009 µg
- Accumulative excretion amount (oral CNS 110 mg/kg, 48 h): 0.135 ± 0.096 µg
- Accumulative excretion percentage (oral CNS 110 mg/kg, 48 h): 0.018±0.013%
- Excretion amount (oral CNS 110 mg/kg, 48 h): 0.021 ± 0.024 µg
- Accumulative excretion amount (oral CNS 110 mg/kg, 72 h): 0.139 ± 0.098 µg
- Accumulative excretion percentage (oral CNS 110 mg/kg, 72 h): 0.018±0.013%
- Excretion amount (oral CNS 110 mg/kg, 72 h): 0.004 ± 0.004 µg
- Accumulative excretion amount (oral CNS 110 mg/kg, 96 h): 0.144 ± 0.100 µg
- Accumulative excretion percentage (oral CNS 110 mg/kg, 96 h): 0.019±0.013%
- Excretion amount (oral CNS 110 mg/kg, 96 h): 0.005 ± 0.005 µg
- Accumulative excretion amount (oral CNS 110 mg/kg, 120 h): 0.148 ± 0.101 µg
- Accumulative excretion percentage (oral CNS 110 mg/kg, 120 h): 0.019±0.013%
- Excretion amount (oral CNS 110 mg/kg, 120 h): 0.004 ± 0.004 µg
- Accumulative excretion amount (oral NS 60 mg/kg, 2 h): 0.022 ± 0.025 µg
- Accumulative excretion percentage (oral NS 60 mg/kg, 2 h): 0.002±0.003%
- Excretion amount (oral NS 60 mg/kg, 2 h): 0.022 ± 0.025 µg
- Accumulative excretion amount (oral NS 60 mg/kg, 4 h): 0.027 ± 0.029 µg
- Accumulative excretion percentage (oral NS 60 mg/kg, 4 h): 0.003±0.003%
- Excretion amount (oral NS 60 mg/kg, 4 h): 0.008 ± 0.003 µg
- Accumulative excretion amount (oral NS 60 mg/kg, 6 h): 0.048 ± 0.039 µg
- Accumulative excretion percentage (oral NS 60 mg/kg, 6 h): 0.006±0.004%
- Excretion amount (oral NS 60 mg/kg, 6 h): 0.021 ± 0.020 µg
- Accumulative excretion amount (oral NS 60 mg/kg, 8 h): 0.097 ± 0.129 µg
- Accumulative excretion percentage (oral NS 60 mg/kg, 8 h): 0.011±0.015%
- Excretion amount (oral NS 60 mg/kg, 8 h): 0.082 ± 0.123 µg
- Accumulative excretion amount (oral NS 60 mg/kg, 12 h): 0.173 ± 0.206 µg
- Accumulative excretion percentage (oral NS 60 mg/kg, 12 h): 0.020±0.024%
- Excretion amount (oral NS 60 mg/kg, 12 h): 0.076 ± 0.083 µg
- Accumulative excretion amount (oral NS 60 mg/kg, 24 h): 0.279 ± 0.198 µg
- Accumulative excretion percentage (oral NS 60 mg/kg, 24 h): 0.032±0.023%
- Excretion amount (oral NS 60 mg/kg, 24 h): 0.106 ± 0.109 µg
- Accumulative excretion amount (oral NS 60 mg/kg, 36 h): 0.311 ± 0.182 µg
- Accumulative excretion percentage (oral NS 60 mg/kg, 36 h): 0.036±0.021%
- Excretion amount (oral NS 60 mg/kg, 36 h): 0.041 ± 0.012 µg
- Accumulative excretion amount (oral NS 60 mg/kg, 48 h): 0.359 ± 0.187 µg
- Accumulative excretion percentage (oral NS 60 mg/kg, 48 h): 0.041±0.021%
- Excretion amount (oral NS 60 mg/kg, 48 h): 0.048 ± 0.045 µg
- Accumulative excretion amount (oral NS 60 mg/kg, 72 h): 0.372 ± 0.200 µg
- Accumulative excretion percentage (oral NS 60 mg/kg, 72 h): 0.043±0.023%
- Excretion amount (oral NS 60 mg/kg, 72 h): 0.013 ± 0.018 µg
- Accumulative excretion amount (oral NS 60 mg/kg, 96 h): 0.379 ± 0.211 µg
- Accumulative excretion percentage (oral NS 60 mg/kg, 96 h): 0.044±0.024%
- Excretion amount (oral NS 60 mg/kg, 96 h): 0.008 ± 0.013 µg
- Accumulative excretion amount (oral NS 60 mg/kg, 120 h): 0.386 ± 0.221 µg
- Accumulative excretion percentage (oral NS 60 mg/kg, 120 h): 0.044±0.025%
- Excretion amount (oral NS 60 mg/kg, 120 h): 0.007 ± 0.012 µg
